In patent US11174242B2, “Heteroaryl compounds and their use” (Minoryx Therapeutics S.L., priority 2016, dated 2021):
Changes are numbered by the printed parent chain.

Legend:
[1] = target: T1, β-glucocerebrosidase, p.L444P mutation (GM08760A fibroblasts) (Homo sapiens, UniProt P04062, L483P); assay: Enhancement of β-glucocerebrosidase activity measured in Gaucher disease fibroblasts (L444P); type: cell-based; conditions: increase in enzyme activity vs non-treated cells, GBA fibroblasts bearing L444P
T1 construct: host or cells: human Gaucher patient fibroblasts GM08760A, homozygous L444P
T1 sequence (P04062 40-536 L483P): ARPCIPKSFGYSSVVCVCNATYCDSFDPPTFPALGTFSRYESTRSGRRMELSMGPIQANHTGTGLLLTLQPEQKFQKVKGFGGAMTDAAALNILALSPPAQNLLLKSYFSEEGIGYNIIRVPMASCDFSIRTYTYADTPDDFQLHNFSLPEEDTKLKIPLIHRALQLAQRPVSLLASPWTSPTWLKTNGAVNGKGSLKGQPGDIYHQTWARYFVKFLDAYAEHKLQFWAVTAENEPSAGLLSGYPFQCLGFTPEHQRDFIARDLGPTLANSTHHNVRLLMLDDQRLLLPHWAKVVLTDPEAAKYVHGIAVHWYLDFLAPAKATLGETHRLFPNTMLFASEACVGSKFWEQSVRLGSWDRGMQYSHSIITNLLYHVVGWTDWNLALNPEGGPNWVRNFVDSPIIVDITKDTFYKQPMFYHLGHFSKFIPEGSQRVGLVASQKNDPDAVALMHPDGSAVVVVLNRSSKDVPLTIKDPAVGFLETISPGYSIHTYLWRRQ
How it was run: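 GM08760A fibroblasts (homozygous p.L444P), 5×10^3 cells/well, treated with compound for 4 days at 37° C. Intact cells then incubated with 4-MU-β-D-glucopyranoside in 0.1 M acetate buffer pH=4 for 1 hour at 37° C.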

[2] = target: T2, β-glucocerebrosidase Wild Type (WT) (Homo sapiens, UniProt P04062); assay: β-glucocerebrosidase activity enhancement, Wild Type (WT); type: cell-based; conditions: increase in enzyme activity vs non-treated cells; for Activity WT: commercially available compounds
T2 construct: endogenous in cells
T2 sequence (P04062 40-536): T1 sequence (P04062 40-536 L483P) with P444L
Description: Fibroblasts were seeded at 5×10^3 cells per well in 96-well cell culture plates (Corning, N.Y., USA) in Dulbecco's Modified Eagle's Media (DMEM) supplemented with 10% of fetal bovine serum (FBS), 1% penicillin/streptomycin (P/S) (Thermo Fisher Scientific, Waltham, Mass., USA) and grown at 37° C., 5% CO2 overnight for cell attachment. Subsequently, cells were incubated in the absence or presence of the compounds at the desired concentration for 4 days. After incubation, cells were washed twice with phosphate-buffered saline (PBS) and enzyme activity assay was performed.
β-glucocerebrosidase activity in intact cultured cells was measured by using 4-methylumbelliferyl-β-D-glucopyranoside substrate (Apollo Scientific, UK). Briefly, cells were incubated with 4-MU-β-D-glucopyranoside in 0.1 M acetate buffer pH=4 at 37° C. for 1 hour. […] The liberated 4-MU was measured on a GloMax Discover plate reader (Promega, Madison, Wis., USA) with and excitation at 340 nm and emission at 460 nm. Enzyme activities were expressed in treated cells as X-fold increase in comparison with non-treated cells (X=1 represents no enhancement).
The following compounds listed in Table 2 were purchased (from Enamine, Princeton, Asinex, Vistas-M, and OSSK_541352) and tested in the assay as described above.

[3] = concentrations between 6 and 50 μM, 4 days incubation
[4] = commercially available compounds, 6-50 μM, 4 days

Row | Compound | Activity L444P [1, 3] | Activity Wild Type (WT) [2] | Activity L444P [1, 4] | Activity WT [2]
1 | CCN(Cc1ccccc1)Cc1cc(Nc2cccc(OC)c2)nc(N)n1 [Example 48, 6-((Benzyl(ethyl)amino)methyl)-N^4-(3-methoxyphenyl)pyrimidine-2,4-diamine] | C (Increase in comparison with non-treated of 1.2-1.7 fold is shown as C) | B (Increase in comparison with non-treated of >1.7-2.0 fold is shown as B) | – | –
2 | COc1cccc(Nc2cc(CN3CCCC3c3ccccc3)nc(N)n2)c1 (stereo not shown) [Example 50] | C (Increase in comparison with non-treated of 1.2-1.7 fold is shown as C) | C (Increase in comparison with non-treated of 1.2-1.7 fold is shown as C) | – | –
3 | Cc1ccc(Nc2cc(CN(C)Cc3ccccc3)nc(N)n2)cc1 [Example 52, 6-((Benzyl(methyl)amino)methyl)-N^4-p-tolylpyrimidine-2,4-diamine] | C (Increase in comparison with non-treated of 1.2-1.7 fold is shown as C) | C (Increase in comparison with non-treated of 1.2-1.7 fold is shown as C) | – | –
4 | Cc1cccc(Nc2cc(N)nc(CN(C)Cc3ccccc3)n2)c1 [Example 64, 2-((Benzyl(methyl)amino)methyl)-N^4-m-tolylpyrimidine-4,6-diamine] | B (Increase in comparison with non-treated of >1.7-2.0 fold is shown as B) | B (Increase in comparison with non-treated of >1.7-2.0 fold is shown as B) | – | –
5 | COc1cccc(Nc2cc(N)nc(CN(C)Cc3ccccc3)n2)c1 [Example 65, 2-((Benzyl(methyl)amino)methyl)-N^4-(3-methoxyphenyl)pyrimidine-4,6-diamine] | B (Increase in comparison with non-treated of >1.7-2.0 fold is shown as B) | A (Increase in comparison with non-treated of >2.0 fold is shown as A) | – | –
6 | COc1ccccc1Nc1nc(N)cc(CN(C)Cc2ccccc2)n1 [Example 67, 6-((Benzyl(methyl)amino)methyl)-N^2-(2-methoxyphenyl) pyrimidine-2,4-diamine] | A (Increase in comparison with non-treated of >2.0 fold is shown as A) | B (Increase in comparison with non-treated of >1.7-2.0 fold is shown as B) | – | –
7 | Cc1cccc(Nc2nc(N)cc(CN(C)Cc3ccccc3)n2)c1 [Example 68, 6-((Benzyl(methyl)amino)methyl)-N^2-m-tolylpyrimidine-2,4-diamine] | B (Increase in comparison with non-treated of >1.7-2.0 fold is shown as B) | A (Increase in comparison with non-treated of >2.0 fold is shown as A) | – | –
8 | COc1cccc(Nc2nc(N)cc(CN(C)Cc3ccccc3)n2)c1 [Example 69, 6-((Benzyl(methyl)amino)methyl)-N^2-(3-methoxyphenyl)pyrimidine-2,4-diamine] | A (Increase in comparison with non-treated of >2.0 fold is shown as A) | C (Increase in comparison with non-treated of 1.2-1.7 fold is shown as C) | – | –
9 | COc1ccc(Nc2nc(N)cc(CN(C)Cc3ccccc3)n2)cc1 [Example 70] | A (Increase in comparison with non-treated of >2.0 fold is shown as A) | B (Increase in comparison with non-treated of >1.7-2.0 fold is shown as B) | – | –
10 | Nc1nc(CN2Cc3ccccc3C2)nc(Nc2ccc(F)cc2)n1 [N2-(4-fluorophenyl)-6-(isoindolin-2-ylmethyl)-1,3,5-triazine-2,4-diamine] | – | – | B (Increase in comparison with non-treated of >1.7-2.0 fold is shown as B) | C (Increase in comparison with non-treated of 1.2-1.7 fold is shown as C)
11 | COc1cccc(N2CCN(Cc3nc(N)nc(NCc4ccccc4)n3)CC2)c1 [N2-benzyl-6-((4-(3-methoxyphenyl)piperazin-1-yl)methyl)-1,3,5-triazine-2,4-diamine] | – | – | C (Increase in comparison with non-treated of 1.2-1.7 fold is shown as C) | C (Increase in comparison with non-treated of 1.2-1.7 fold is shown as C)
